# Measurements taken from patent publication US11690860B2, “Treatment of HCV infected patients with cirrhosis” (Atea Pharmaceuticals, Inc., priority 2018, dated 2023).
# “And” between values parts separate entries of the source, which are not always exact repeats. Equal values may be shown once. “Also recorded” adds a separate entry of the source. Where a name gives a salt, the structure may show the parent alone.
# Tests used:
# Assay type in all cases: in vivo, human
# GT1b HCV [1] = test: Part B: single ascending dose study, HCV RNA reduction in non-cirrhotic GT1b HCV-infected subjects
# Method: (§1) HCV-infected patients were treatment-naïve with HCV RNA ≥5 log 10 IU/mL. HCV RNA was quantified using COBAS® AmpliPrep TaqMAN® v2.0 with LLQ of 15 IU/mL. Plasma drug levels were measured using LC-MS/MS. […] Cirrhosis was confirmed by prior liver biopsy or Fibroscan >12.5 kPa. […] Mean ages of enrolled subjects were 44, 39, and 56 years in the non-cirrhotic GT1b 600 mg dose cohort, non-cirrhotic GT3 cohort, and the cirrhotic cohort, respectively.
# Part A and Part B were previously conducted and described in WO 2018/144640. Part A and Part B were single ascending dose (SAD) studies.
# GT1b HCV [2] = test: Part C: multiple ascending dose study, 7 days QD, HCV RNA change in non-cirrhotic GT1 HCV-infected patients; settings: for Mean ± SD HCV RNA maximum change from baseline / Individual HCV RNA maximum change from baseline / Mean ± SD HCV RNA change from baseline to 24 h: NC GT1b; for Mean ± SD HCV RNA maximum change from baseline / Mean ± SD HCV RNA change from baseline to 24 h: N=6
# Method: (§2) Doses were administered as the Compound 2 salt base. The free base Compound 1 equivalent is often given in parenthesis.
# (§3) Part C was a randomized, double-blind, placebo-controlled MAD study divided into three cohorts. […] The dose escalation only proceeded following satisfactory review of the data.
# as §1
# GT3 HCV = test: Part D: 600 mg QD for 7 days, HCV RNA change in non-cirrhotic GT3 HCV-infected patients; settings: for Individual HCV RNA maximum change from baseline / Mean ± SD HCV RNA maximum change from baseline / Mean ± SD HCV RNA change from baseline to 24 h: Part D; for Individual HCV RNA maximum change from baseline / Mean ± SD HCV RNA maximum change from baseline: NC GT3, 600 mg/day QD 7 days; for Mean ± SD HCV RNA maximum change from baseline / Mean ± SD HCV RNA change from baseline to 24 h: N=6; for Mean ± SD HCV RNA change from baseline to 24 h: NC GT3, 600 mg/day
# Method: (§4) Doses were administered as the Compound 2 salt base. The free base Compound 1 equivalent is often given in parenthesis. […]
# as §1
# GT1, GT2, or GT3 HCV = test: Part E: 600 mg QD for 7 days, HCV RNA change in Child-Pugh A cirrhotic patients; settings: for Mean Reduction After 24 hours: 600 mg; for Mean ± SD HCV RNA maximum change from baseline / Mean ± SD HCV RNA change from baseline to 24 h / Individual HCV RNA maximum change from baseline: Part E; for Mean ± SD HCV RNA maximum change from baseline: Child-Pugh A cirrhotic GT1/GT2/GT3, 600 mg/day QD 7 days; for Mean ± SD HCV RNA maximum change from baseline / Mean ± SD HCV RNA change from baseline to 24 h: N=6; for Mean ± SD HCV RNA change from baseline to 24 h: Child-Pugh A cirrhotic GT1/GT2/GT3, 600 mg/day
# Method: as §4, §1
# [3] = Plasma pharmacokinetics of Compound 1 and metabolite 1-7 (LC-MS/MS) in Parts C, D and E; settings: based on plasma exposures
# Method: as §2, §3, §1
# Plasma levels of metabolite 1-7 were measured using LC-MS/MS.
# [4] = Safety/tolerability in the study of Compound 2
# Method: as §2, §3
# However, this observation is consistent with previously published data showing rapid increase in lipids with HCV clearance upon initiation of DAA therapy in HCV-infected subjects.
# HCV GT1, GT2, GT3 = test: All 600 mg QD cohorts (Parts C/D/E) taken together, plasma HCV RNA
# Method: as §2, §3, §1
# [5] = Part C, 600 mg/day QD 7 days, listed as Compd 2
# [6] = GT1, Child-Pugh A, 600 mg QD 7 days, n=3
# [7] = GT3, Child-Pugh A, 600 mg QD 7 days, n=1
smiles,measurement,setting,value
"CNc1nc(N)nc2c1ncn2[C@@H]1O[C@H](CO[P@@](=O)(N[C@@H](C)C(=O)OC(C)C)Oc2ccccc2)[C@@H](O)[C@@]1(C)F [Compound 2, hemi-sulfate salt of isopropyl((S)-(((2R,3R,4R,5R)-5-(2-amino-6-(methylamino)-9H-purin-9-yl)-4-fluoro-3-hydroxy-4-methyltetrahydrofuran-2-yl)methoxy)(phenoxy)phosphoryl)-L-alaninate]",Individual Max Reduction of HCV RNA,GT1b HCV [1]; 600 mg Compound 2 (equivalent of 550 mg Compound 1),2.1 log10 IU/ml and 2.3 log10 IU/ml and 2.6 log10 IU/ml
same,Mean Max Reduction of HCV RNA,"GT1b HCV [1]; 600 mg Compound 2 (equivalent of 550 mg Compound 1), n=3",2.3 log10 IU/ml
same,Individual Max Reduction of HCV RNA,GT1b HCV [1]; Compound 2 equivalent of 92 mg Compound 1,0.6 log10 IU/ml and 0.8 log10 IU/ml and 0.9 log10 IU/ml
same,Mean Max Reduction of HCV RNA,"GT1b HCV [1]; Compound 2 equivalent of 92 mg Compound 1, n=3",0.8 log10 IU/ml
same,Individual Max Reduction of HCV RNA,GT1b HCV [1]; Compound 2 equivalent of 275 mg Compound 1,1.1 log10 IU/ml and 1.8 log10 IU/ml and 2.2 log10 IU/ml
same,Mean Max Reduction of HCV RNA,"GT1b HCV [1]; Compound 2 equivalent of 275 mg Compound 1, n=3",1.7 log10 IU/ml
same,Individual Max Reduction of HCV RNA,GT1b HCV [1]; Compound 2 equivalent of 368 mg Compound 1,1.8 log10 IU/ml and 2.2 log10 IU/ml and 2.6 log10 IU/ml
same,Mean Max Reduction of HCV RNA,"GT1b HCV [1]; Compound 2 equivalent of 368 mg Compound 1, n=3",2.2 log10 IU/ml
same,"HCV RNA < LOQ (15 IU/mL), subjects","GT1b HCV [2]; GT1 non-cirrhotic, 600 mg QD 7 days, n=6",3/6
same,subjects achieving HCV RNA <LOQ,"GT1b HCV [2]; Part C, 600 mg QD 7 days",50%
same,Mean ± SD HCV RNA maximum change from baseline,"GT1b HCV [2]; Part C, 150 mg/day QD 7 days",2.6 ± 1.1 log10 IU/mL
same,Individual HCV RNA maximum change from baseline,"GT1b HCV [2]; Part C, 150 mg/day QD 7 days, listed as Compd 2",1.7 log10 IU/mL and 1.8 log10 IU/mL (2×) and 2.7 log10 IU/mL and 3.0 log10 IU/mL and 4.5 log10 IU/mL
same,Mean ± SD HCV RNA change from baseline to 24 h,"GT1b HCV [2]; Part C, 150 mg/day",1.2 ± 0.3 log10 IU/mL
same,Mean ± SD HCV RNA maximum change from baseline,"GT1b HCV [2]; Part C, 300 mg/day QD 7 days",4.0 ± 0.4 log10 IU/mL
same,Individual HCV RNA maximum change from baseline,"GT1b HCV [2]; Part C, 300 mg/day QD 7 days, listed as Compd 2",3.4 log10 IU/mL and 3.7 log10 IU/mL and 3.9 log10 IU/mL and 4.2 log10 IU/mL (2×) and 4.5 log10 IU/mL
same,Mean ± SD HCV RNA change from baseline to 24 h,"GT1b HCV [2]; Part C, 300 mg/day",1.9 ± 0.2 log10 IU/mL
same,Individual HCV RNA maximum change from baseline,"GT1b HCV [2]; Part C, 600 mg/day QD 7 days",4.3 log10 IU/mL and 5.2 log10 IU/mL and 5.3 log10 IU/mL and 3.5 log10 IU/mL and 4.0 log10 IU/mL and 4.1 log10 IU/mL
same,Mean ± SD HCV RNA maximum change from baseline,GT1b HCV [2]; [5],4.4 ± 0.7 log10 IU/mL
same,Individual HCV RNA maximum change from baseline,GT1b HCV [2]; [5],3.5 log10 IU/mL and 4.0 log10 IU/mL and 4.1 log10 IU/mL and 4.3 log10 IU/mL and 5.2 log10 IU/mL and 5.3 log10 IU/mL
same,Mean ± SD HCV RNA change from baseline to 24 h,"GT1b HCV [2]; Part C, 600 mg/day",2.1 log10 IU/mL
same,Mean ± SD HCV RNA change from baseline to 24 h,"GT1b HCV [2]; Part C, 600 mg/day, listed as Compd 2",2.1 ± 0.2 log10 IU/mL
same,"HCV RNA < LOQ (15 IU/mL), subjects","GT3 HCV; GT3 non-cirrhotic, 600 mg QD 7 days, n=6",one subject achieved HCV RNA <LOQ within four days and 1/6
same,Individual HCV RNA maximum change from baseline,GT3 HCV,4.2 log10 IU/mL and 4.4 log10 IU/mL and 4.5 log10 IU/mL (2×) and 5.0 log10 IU/mL
same,Mean ± SD HCV RNA maximum change from baseline,GT3 HCV,4.5 log10 IU/mL
same,Mean ± SD HCV RNA maximum change from baseline,GT3 HCV; listed as Compd 2,4.5 ± 0.3 log10 IU/mL
same,Individual HCV RNA maximum change from baseline,GT3 HCV; listed as Compd 2,4.2 log10 IU/mL and 4.4 log10 IU/mL (2×) and 4.5 log10 IU/mL (2×) and 5.0 log10 IU/mL
same,Mean ± SD HCV RNA change from baseline to 24 h,GT3 HCV,2.4 log10 IU/mL
same,Mean ± SD HCV RNA change from baseline to 24 h,GT3 HCV; listed as Compd 2,2.3 ± 0.3 log10 IU/mL
same,antiviral activity / HCV RNA change in cirrhotic compared with non-cirrhotic subjects,"GT1, GT2, or GT3 HCV; 600 mg/day QD 7 days, Part E vs Parts C and D",similar
same,"HCV RNA < LOQ (15 IU/mL), subjects","GT1, GT2, or GT3 HCV; [6]",1/3
same,Mean Max Reduction,"GT1, GT2, or GT3 HCV; [6]",4.2 log10 IU/mL
same,Mean Reduction After 24 hours,"GT1, GT2, or GT3 HCV; GT1, Child-Pugh A, n=3",2.4 log10 IU/mL
same,activity against HCV genotypes in cirrhotic patients,"GT1, GT2, or GT3 HCV; GT1, GT2, and GT3",active
same,"HCV RNA < LOQ (15 IU/mL), subjects","GT1, GT2, or GT3 HCV; [7]",0/1
same,Mean (Individual) Max Reduction,"GT1, GT2, or GT3 HCV; [7]",4.8 log10 IU/mL
same,Mean Reduction After 24 hours,"GT1, GT2, or GT3 HCV; GT3, Child-Pugh A, n=1",2.2 log10 IU/mL
same,Mean ± SD HCV RNA maximum change from baseline,"GT1, GT2, or GT3 HCV",4.6 log10 IU/mL and 4.5 log10 IU/mL
same,Mean ± SD HCV RNA maximum change from baseline,"GT1, GT2, or GT3 HCV; listed as Compd 2",4.6 ± 0.5 log10 IU/mL
same,Mean ± SD HCV RNA change from baseline to 24 h,"GT1, GT2, or GT3 HCV",2.4 log10 IU/mL
same,Mean ± SD HCV RNA change from baseline to 24 h,"GT1, GT2, or GT3 HCV; listed as Compd 2",2.4 ± 0.2 log10 IU/mL
same,Individual HCV RNA maximum change from baseline,"GT1, GT2, or GT3 HCV; cirrhotic GT1b, 600 mg/day QD 7 days",4.0 log10 IU/mL and 4.1 log10 IU/mL and 4.5 log10 IU/mL
same,Individual HCV RNA maximum change from baseline,"GT1, GT2, or GT3 HCV; cirrhotic GT1b, 600 mg/day QD 7 days, listed as Compd 2","GT1b: 4.0, log10 IU/mL and 4.1 log10 IU/mL and 4.5 log10 IU/mL"
same,Individual HCV RNA maximum change from baseline,"GT1, GT2, or GT3 HCV; cirrhotic GT2, 600 mg/day QD 7 days",GT2: 4.8 log10 IU/mL
same,Individual HCV RNA maximum change from baseline,"GT1, GT2, or GT3 HCV; cirrhotic GT3, 600 mg/day QD 7 days, listed as Compd 2",5.1 log10 IU/mL and 5.2 log10 IU/mL
same,impact of mild hepatic impairment on PK,[3],did not significantly impact
same,"serious adverse events, dose-limiting toxicities, premature discontinuations","[4]; cirrhotic and non-cirrhotic HCV-infected subjects, up to 600 mg","No serious adverse events (AEs), dose-limiting toxicities, or premature discontinuations were reported; also recorded: No serious adverse events, dose-limiting toxicities or premature discontinuations were observed"
same,lipid abnormalities (cholesterol and triglyceride increase),[4]; compared to placebo,higher incidence of mostly low-grade lipid abnormalities
same,ALT/AST values,[4]; during the treatment period,decreased over time
same,"AEs, laboratory parameters, ECGs and vital signs",[4]; in vivo,"no other clinically relevant, dose-related patterns"
same,liver injury,[4]; in vivo,no findings suggestive of liver injury
same,tolerability,[4]; up to 600 mg (salt form) for seven days,well tolerated
same,reductions in plasma HCV RNA,"HCV GT1, GT2, GT3; 600 mg QD, steady state, regardless of genotype or cirrhosis status",−4.5 log10 IU/mL
same,plasma HCV RNA decrease within the first 24 h of dosing,"HCV GT1, GT2, GT3; after the first 600 mg dose",up to 2.4 log10 IU/mL
same,subjects achieving HCV RNA below the lower limit of quantitation,"HCV GT1, GT2, GT3; cohorts receiving 600 mg QD, seven days of therapy",~30%
